These are literature values, as cited in PMC8250858, “A Systematic Study of the Stability, Safety, and Efficacy of the de novo Designed Antimicrobial Peptide PepD2 and Its Modified Derivatives Against Acinetobacter baumannii” (Frontiers in Microbiology, 2021).

For data set [1], the system named is carbapenem-resistant A. baumannii. Details: method as in Huang et al., 2012. The settings on record: intraperitoneal injection twice a day for 3 days; ref Huang et al., 2012; cited from earlier work.
Data set [2] concerns 20 strains of A. baumannii. Details: method as in Huang et al., 2012. The settings on record: ref Huang et al., 2012; cited from earlier work.
Data set [3] concerns A. baumannii 19606. Also noted: method as in Feng et al., 2013. The settings on record: ref Feng et al., 2013; cited from earlier work.
For data set [4], the system named is A. baumannii. Details: method as in Sato et al., 2018. The following applies: ref Sato et al., 2018; cited from earlier work.

With C(LLKK)2C, the “Mice rescued” value in data set [1] was “rescued half of the mice”. Further, in data set [2], the “MIC against 20 strains of A. baumannii” value is 40 to 75 µg/mL.

Regarding “LL-37: natural human antimicrobial peptide”, the “MIC against A. baumannii 19606” value in data set [3] is 16 µg/mL.

With colistin sulfate, in data set [4], the “MIC against A. baumannii” value was 2 µg/mL.
